# Key:
# [1] = cited from earlier work
# UMPS^KO/KO K562 cells = experiment: K562 xenograft model, bioluminescence imaging; assay type: in vivo, NSG mice; conditions: mice fed with 8% UTA
# Source text: (§1) For the K562 xenograft assay, 6 to 12 weeks old male NOD SCID gamma mouse (NSG) mice were transplanted with 1×10^6 K562 cells resuspended in […]® protein mixture (Corning, Inc.) 1:1 diluted with PBS under anesthesia. All animals were kept and handled according to institutional guidelines and the experimental protocol was approved by Stanford University's Administrative Panel on Laboratory Animal Care.
# (§2) The previously engineered UMPSK^KO/KO K562 cell line expressing firefly luciferase (FLuc) was used in a xenograft model in NSG mice. […] Cas9 RNP is targeted to exon 1 of the HBB locus with a guide RNA and a DNA donor template transduced by rAAV6 which carries a FLuc-2A-GFP-polyA cassette under control of the SFFV promoter. FACS analysis was performed four days after targeting of K562 cells to evaluate GFP expression before sorting of the GFP+ population. In a control group administered the AAV only, 1.61% of the cells were GFP+, and […]. […]
# (§3) UMPSK^KO/KO K562 cells or control cells were transplanted subcutaneously and observed weekly with bioluminescence imaging. Luminescence imaging of K562 cells was performed 5 minutes after intraperitoneal (ip) injection of 125 mg/kg D-Luciferin (PerkinElmer) on an IVIS Spectrum imaging system (PerkinElmer). […]
# [2] = test system: K562 cells with wild-type UMPS; experiment: K562 xenograft model, bioluminescence imaging; assay type: in vivo, NSG mice; conditions: UTA supplemented food (same with normal food)
# Source text: as §1, §2, §3
smiles,measurement,setting,value
"CC(=O)OC[C@H]1O[C@@H](n2ccc(=O)[nH]c2=O)[C@H](OC(C)=O)[C@@H]1OC(C)=O [UTA, uridine triacetate]",Increase of uridine serum levels,"[1]; humans and mouse models, administration as prodrug",greater than 10 fold
same,Tolerability,"[1]; mice, food enriched with 8% (w/w) UTA",well tolerated
same,Luminescence of UMPS^KO/KO K562-derived tumors,UMPS^KO/KO K562 cells,increased
same,Tumor burden of UMPS wild-type K562 cells,[2],increase in tumor burden
